Measured values as given in patent publication US20250255293A1, “TISSUE DECONTAMINATION AND PRESERVATION SYSTEM” (priority 2024, published 2025).
Where two headings read alike, the source gives them in different places.

Legend:
[1] = test system: contaminated osteochondral tissues; settings: 10% povidone-iodine or 0.4% chlorhexidine, 20-minute immersion; cited from earlier work
[2] = test system: contaminated human femoral osteochondral allografts; settings: 0.002% chlorhexidine gluconate, pulse lavage (1 L) / immediate intraoperative treatment, cited from earlier work
[3] = test system: chondrocytes of osteoarticular fracture fragments; assay: Viable chondrocyte density, live-dead calcein AM / ethidium homodimer assay (Example 3); assay type: cell-based, canine; settings: for Viable Chondrocyte Density, mean (SD): 20 min immersion (10% povidone-iodine or 0.002% chlorhexidine)
Text: Purpose-bred hounds (n=16) were humanely euthanized, immediately after which an open articular fracture in both elbows (n=32) was created using a captive bolt pistol. Each dog was positioned in sternal recumbency with one forelimb extended and secured in a custom made positioning apparatus. Fur was not clipped and no aseptic preparation or techniques were implemented. A captive bolt stunner pistol with a 4.75-inch penetrating pin and 1.25 grain cartridge was centered on the cranial (anterior) aspect of the distal humerus, immediately proximal to the joint. With firm pressure against the secured elbow, the pistol was discharged, and the procedure was repeated for the contralateral elbow. Soft tissues were removed aseptically and the distal humerus (n=32), proximal radius (n=32), and trochlea (n=32) were osteotomized and processed under operating room conditions in 1 of 3 ways: 1) Betadine ([…]): 0.9% saline irrigation (1 L), 10% povidone-iodine solution immersion (20 min), saline irrigation; 2) Chlorhexidine (n=42): saline irrigation, 0.002% chlorhexidine solution immersion (20 min), saline irrigation; 3) Control (n=12): untreated. Each osteoarticular fragment was placed in 200 ml of MOPS® solution (500 ml DMEM, 5 ml ITS (insulin (10 mg/L), transferrin 55 mg/L), selenium (6.7 μg/L)), 5 ml total penicillin (100 U/ml), streptomycin (100 μg/ml), amphotericin B (2.5 μg/ml), 5 ml L-glutamine (2 mM), 5 ml non-essential amino acids (0.1 mM), 1 ml ascorbic acid (50 ng/ml), and 5.46 ml dexamethasone (0.1 μM)) in a sterile container and stored under standard room temperature and humidity conditions for 7 (n=46) or 14 (n=48) days. At each time point, viable chondrocyte density (VCD) and quantitative microbial culture assessments were assayed, yielding a count of colony forming units (CFU) per specimen.
Viable chondrocyte density (VCD) was evaluated using a live-dead calcein AM (live stain) and ethidium homodimer (dead stain) assay, as previously described (Cook, et al., Am. J. Sports Med. 44:1260-1268, 2016). A minimum of two images from each osteochondral fragment were assessed via fluorescent microscopy. The VCD was determined by counting the number of viable cells in each image and dividing this by the area of the tissue in the image (#of viable cells/area of cartilage tissue mm^2). This methodology was aimed at providing an objective and quantifiable assessment of cell viability post-treatment.
Univariate comparison of VCD and CFU were performed via Kruskal-Wallis and Chi-squared test. Multivariate linear regression was used, controlling for osteotomy site and storage time, to determine the correlation between processing method and VCD or CFU. Data manipulation and statistical analysis were performed using R software.

## [H]/N=C(\N/C(=N/[H])NCCCCCCNC(=N)NC(=N)Nc1ccc(Cl)cc1)Nc1ccc(Cl)cc1 [Chlorhexidine, chlorhexidine gluconate]
[1]
  decontamination of contaminated osteochondral tissues: effective at fully decontaminating
[2]; listed as Chlorhexidine Gluconate
  decontamination of contaminated osteochondral allografts: effective decontamination
[2]; listed as chlorhexidine gluconate
  decontamination of contaminated osteochondral allografts: effective for complete decontamination
[3]; at 7 days
  mean VCD: 772
[3]; at 14 days
  mean VCD: 710
[3]; multivariate linear regression, controlling for storage timing and osteotomy site
  increase of VCD relative to control treatment: 377 VCD
[3]; saline irrigation, 0.002% chlorhexidine immersion, room temperature storage in MOPS
  maintenance of chondrocyte viability (in words): maintaining chondrocyte viability for up to 14 days
[3]; storage time 7 days in MOPS at room temperature
  Viable Chondrocyte Density, mean (SD): 772.3 (257.0) mm^−2
[3]; storage time 14 days in MOPS at room temperature
  Viable Chondrocyte Density, mean (SD): 709.5 (338.0) mm^−2
